Reference: patent US20060079453A1, “Hla binding peptides and their uses” (priority 2002, published 2006)
No end group written: not given here.

Assays:
Assay in all cases: biochemical
Format in all cases: binding
HLA-DR DRB1*0101 (DR1) = HLA-DR DRB1*0101 (DR1) (Homo sapiens, UniProt P01903+P01911, A100R/D57E/F55L/F60I/F76Y/I96L/L162R/M171V/P40L/Q125E/R42F/V115G/Y59C); settings: DRB1 *0101
HLA-DR DRB1*0301 (DR3) = HLA-DR DRB1*0301 (DR3) (Homo sapiens, UniProt P01903+P01911, A100K/A102G/A103R/A169T/F55Y/I96L/K41T/L162R/M171V/P40S/Q125H/Q178H/Q39Y/R42S/S66N/T106N/T262R/W38E/Y61H)
HLA-DR DRB1*0401 (DR4) = HLA-DR DRB1*0401 (DR4) (Homo sapiens, UniProt P01903+P01911, A100K/A169T/F76Y/I96L/K127E/L162R/M171V/N62H/P40V/Q125Y/R42H/S133A/S149N/S66Y/V115G/V209L/W38E); settings: DRB1 *0401
HLA-DR DRB1*0405 (DR4) = HLA-DR DRB1*0405 (DR4) (Homo sapiens, UniProt P01903+P01911, A100R/A169T/D86S/F76Y/I96L/K127E/L162R/M171V/N62H/P40V/Q125Y/R42H/S133A/S149N/S66Y/V115G/V209L/W38E); settings: DRB1 *0405
HLA-DR DRB1*0701 (DR7) = HLA-DR DRB1*0701 (DR7) (Homo sapiens, UniProt P01903+P01911, A100R/A102G/A103Q/D57E/D86V/E43K/F76Y/K127E/L162R/M171V/P40G/Q125H/Q99D/R33Q/R42Y/R54Q/S133A/S66F/T210M/V115G/Y107V/Y59L/Y89S); settings: DRB1 *0701
HLA-DR DRB1*0802 (DR8) = HLA-DR DRB1*0802 (DR8) (Homo sapiens, UniProt P01903+P01911, A100R/A103L/A169T/F76Y/H45Y/I96F/K41T/L162R/M171V/P40S/Q125H/Q178H/Q39Y/Q99D/R218S/R42G/S66Y/V115G/W38E)
HLA-DR DRB1*0901 (DR9) = HLA-DR DRB1*0901 (DR9) (Homo sapiens, UniProt P01903+P01911, A100R/A103E/D57H/D86V/F55Y/F60I/F76Y/I96F/K127E/L162R/M171V/P40D/Q125H/Q99R/R33Q/R42F/S133A/S66N/T210M/V115G/W38K/Y107V/Y59G/Y89S); settings: DRB1 *0901
HLA-DR DRB1*1101 (DR11) = HLA-DR DRB1*1101 (DR11) (Homo sapiens, UniProt P01903+P01911, A100R/A169T/A87E/I96F/K41T/L162R/M171V/P40S/Q125H/Q178H/Q39Y/Q99D/R42S/S66Y/T262R/V115G/W38E); settings: DRB1 *1101
HLA-DR DRB1*1302 (DR13) = HLA-DR DRB1*1302 (DR13) (Homo sapiens, UniProt P01903+P01911, A100E/A169T/K41T/L162R/M171V/P40S/Q125H/Q178H/Q39Y/Q99D/R42S/S66N/T262R/V115G/W38E/Y61H); settings: DRBI *1302
HLA-DR DRB1*1501 (DR15) = HLA-DR DRB1*1501 (DR15) (Homo sapiens, UniProt P01903+P01911); settings: DRBI *1501
HLA-DR DRB3*0101 (DR52) = HLA-DR DRB3*0101 (DR52) (Homo sapiens, UniProt P01903+P79483)
HLA-DR DRB4*0101 (DR53) = HLA-DR DRB4*0101 (DR53) (Homo sapiens, UniProt P01903+P13762, G164S); settings: DRB4 *0101
HLA-DR DRB5*0101 (DR51) = HLA-DR DRB5*0101 (DR51) (Homo sapiens, UniProt P01903+Q30154); settings: DRB5 *0101

Chain of HLA-DR DRB1*1101 (DR11) (P01903 26-254 limits assumed, other chains not shown): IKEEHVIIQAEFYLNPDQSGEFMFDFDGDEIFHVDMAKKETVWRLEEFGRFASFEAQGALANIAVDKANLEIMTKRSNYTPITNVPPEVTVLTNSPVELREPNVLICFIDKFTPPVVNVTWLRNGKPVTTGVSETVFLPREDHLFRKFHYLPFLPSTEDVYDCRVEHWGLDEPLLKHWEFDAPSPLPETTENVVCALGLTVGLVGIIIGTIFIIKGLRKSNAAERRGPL
Chain of HLA-DR DRB1*0301 (DR3) (P01903 26-254 limits assumed, other chains not shown): as above
Chain of HLA-DR DRB1*1302 (DR13) (P01903 26-254 limits assumed, other chains not shown): as above

| Sequence | IC50 (HLA-DR DRB1*0101 (DR1)) [µM] | IC50 (HLA-DR DRB1*0301 (DR3)) [µM] | IC50 (HLA-DR DRB1*0401 (DR4)) [µM] | IC50 (HLA-DR DRB1*0405 (DR4)) [µM] | IC50 (HLA-DR DRB1*0701 (DR7)) [µM] | IC50 (HLA-DR DRB1*0802 (DR8)) [µM] | IC50 (HLA-DR DRB1*0901 (DR9)) [µM] | IC50 (HLA-DR DRB1*1101 (DR11)) [µM] | IC50 (HLA-DR DRB1*1302 (DR13)) [µM] | IC50 (HLA-DR DRB1*1501 (DR15)) [µM] | IC50 (HLA-DR DRB3*0101 (DR52)) [µM] | IC50 (HLA-DR DRB4*0101 (DR53)) [µM] | IC50 (HLA-DR DRB5*0101 (DR51)) [µM] |
| --- | --- | --- | --- | --- | --- | --- | --- | --- | --- | --- | --- | --- | --- |
| ALLKNYGLLYTFRKD | 0.019 | 5.98 | 0.16 | 0.303 | 5.92 | 3.62 | 2.63 | 1.74 | 0.00089 | 0.0065 | 0.05 | 1.34 | 0.029 |
| KEDSHTAWTIVRVEI | 1.91 | 44.8 | 0.746 | 0.302 | 0.035 | > 79 | 6.08 | 7.44 | 3.05 | 1.99 | 56.2 | 0.018 | 0.575 |
| QHLTGSHLVEALYLV | 0.0093 | 50.3 | > 16.1 | 7.42 | 0.038 | > 54.4 | 42.3 | > 10.5 | 6.86 | 0.184 | 4.03 | – | 23.7 |
| KLQTYPRTNTGSGTP | > 10.1 | > 205 | > 26.5 | > 9.81 | > 99.2 | > 51.6 | > 29.2 | 8.21 | 0.987 | 0.52 | > 263 | > 105 | > 14 |
| EHTSLNENITVPDTK | 43.9 | 33.6 | – | 1.24 | 37.2 | > 16.3 | > 78.9 | > 408 | 0.013 | 11.1 | > 42.2 | > 29 | 5.55 |
| RLRIVRGTQLFEDNYAL | 0.0048 | 11.3 | 8.39 | 1.02 | 0.012 | 6.32 | 1.83 | 2.07 | 0.0052 | 0.031 | 1.2 | 0.12 | 0.046 |
| YLVCGERGFLYTPKT | 0.155 | 2.03 | > 20.5 | > 30.1 | 12.8 | > 54.4 | 0.124 | > 1110 | 2.12 | > 25.6 | > 95.2 | 33.1 | 0.971 |
| TSNLSTTVLGKLSQE | – | 86.8 | 8.02 | 9.28 | 31.3 | 2.06 | 2.47 | 0.534 | 9.33 | 7.7 | > 263 | – | 2.53 |
| VEALYLVCGERGSFY | 0.088 | 9.97 | – | 6.11 | 6.49 | > 54.4 | 6.31 | > 10.5 | 4.29 | 1.24 | > 95.2 | – | 0.804 |
| TCVLGKLSQELHKLQ | 0.026 | 29.5 | 14.8 | 9 | 18.7 | 7.66 | 17.9 | 1.4 | > 12.6 | 2.01 | > 263 | 0.163 | 3.99 |
